Assay results as given in patent US11712416B2, “Solid oral pharmaceutical compositions for isoxazoline compounds” (Intervet Inc., priority 2012, dated 2023).
Values after ≈ are worked out from the molar mass of the structure shown. Like-named read-outs stand apart in the source and are kept apart here.

Columns and labels:
[1] = Solubility of the active (fluralaner) in formulation solvents; format: physicochemical; settings: organic solvent or mixture
[2] = Blood plasma pharmacokinetic profile of isoxazoline compounds in two chewable formulations after a single oral administration in dogs (Example 8); format: in vivo; settings: beagle dogs; for Cmax / Tmax / AUC(0-t): dog, plasma; for AUC(0-t): read-out: AUC(0-168h)
Source text: Pharmacokinetic Profile Following Oral Administration of Chewable Formulations of Isoxazoline Compounds
The objective of this study is to compare the blood plasma pharmacokinetic profile of three different isoxazoline compounds in two different chewable formulations after a single oral (PO) administration of in dogs.
The following compounds were formulated according to the invention. Specifically, the isoxazoline compound was first dissolved in a solvent, i.e. 2-pyrrolidone. This drug solution was then adsorbed onto the solid carrier, i.e. microcrystalline cellulose, which was incorporated into a solid oral dosage form as described in the specification with excipients as described in Table 3. Comparative example formulation ID No. 13-009, 13-011 and 13-013 contain the active drug substance incorporated as a solid that was manufactured as described in general in the specification without prior pre-dissolving the active ingredient and adsorption to the solid carrier.
The test compounds were administered orally to four beagle dogs per dose group for a total of twenty-four dogs.
Each animal was administered the tablet or chew by placing it in the back of the oral cavity over the tongue to initiate swallowing.
Plasma was obtained from the collected blood samples and analyzed for concentrations of the test compounds. Individual blood samples (approximately 4.5 mL per sample) were taken via jugular venipuncture into sodium-citrate tubes from all dogs for drug analysis. Blood samples were collected at the following time points: pretreatment (within 2 h prior to dosing) and approximately 1, 2, 4, 6, 8, 24, 48, 72 hours after dosing (15 min). A final blood sample was taken from each dog on Day 7 (2 h after the time of dosing on Day 0).
Pharmacokinetic analysis was performed on the plasma concentration data with the computer program Pharsight WinNonlin Enterprise, Version 4.0.1, or more recent update (Model 200: plasma data, extravascular input).

[3] = single oral dose 10 mg/kg, Alternate Chew (compound dissolved in 2-pyrrolidone)
[4] = single oral dose 25 mg/kg, Control Chew (compound not dissolved)

Row | solubility ([1]; 2-pyrrolidone (2-pyrol), solvent 2-pyrrolidone, read-out: solubility in 2-pyrrolidone (2-pyrol)) [mg/mL] | solubility ([1]; dimethylacetamide (DMAC), solvent DMAC, read-out: solubility in dimethylacetamide (DMAC)) [mg/mL] | SMILES | Cmax/Dose [2, 3] [kg·ng/mL/mg] | Cmax/Dose [2, 4] [kg·ng/mL/mg] | Cmax [2, 3] [ng/mL] | Cmax [2, 4] [ng/mL] | AUC(0-168h)/Dose [2, 3] [kg·ng·h/mL/mg] | AUC(0-168h)/Dose [2, 4] [kg·ng·h/mL/mg] | Tmax [2, 3] [h] | AUC(0-t) [2, 3] [µg·h/mL] | Tmax [2, 4] [h] | AUC(0-t) [2, 4] [µg·h/mL]
1 | 775 (≈ 1390 mM) | 792 (≈ 1420 mM) | Cc1cc(C2=NOC(c3cc(Cl)cc(Cl)c3)(C(F)(F)F)C2)ccc1C(=O)NCC(=O)NCC(F)(F)F (centres unmarked) [Compound A-1443, 4-[5-(3,5-Dichlorophenyl)-5-trifluoromethyl-4,5-dihydroisoxazol-3-yl]-2-methyl-N-[(2,2,2-trifluoro-ethylcarbamoyl)-methyl]-benzamide] | – | – | – | – | – | – | – | – | – | –
2 | – | – | Cc1cc(C2=NOC(c3cc(Cl)cc(Cl)c3)(C(F)(F)F)C2)ccc1C(=O)NC1CSC1 (centres unmarked) [Compound A] | 1.71 | 0.768 | 17.1 | 19.2 | – | – | – | – | – | –
3 | – | – | O=C(CNC(=O)c1ccc(C2=NOC(c3cc(Cl)cc(C(F)(F)F)c3)(C(F)(F)F)C2)c2ccccc12)NCC(F)(F)F (centres unmarked) [Compound B] | 321 | 174 | 3210 | 4340 | 33416 | 16661 | 15.5 | 334 | 5 | 417
4 | – | – | Cc1cc(C2=NOC(c3cc(Cl)cc(Cl)c3)(C(F)(F)F)C2)sc1C(=O)NCC(=O)NCC(F)(F)F (centres unmarked) [Compound C] | 254 | 63.5 | 2540 | 1590 | 32660 | 6573 | 15.5 | 327 | 27.5 | 164
